Test results: patent US5753516A, “Screening method for ligands of the EBI-1 receptor” (priority 1995, dated 1998)
Where “and” joins values, the source holds several entries; their conditions need not be identical. Equal values may be shown once. Entries after “also recorded” stand apart in the source; their conditions may differ. Read-outs that look alike come from different tables or passages of the source.

Experiments:
NALM 6 cells [1] = test: Light scatter analysis of morphological response of NALM 6 cells; type: cell-based, human
Description: FIG. 2, Panels A and B. Methionine-enkephalin induces a morphological change in NALM 6 cells. […] Analysis of forward and right angle light scatter was performed using a Becton Dickinson FACS SCAN flow cytometer as described (Sklar et al., 1984). Histograms of light scatter were obtained by analyzing 10,000 cells per sample. Data are expressed as mean channel number (y-axis) vs concentration of MET-ENK (x-axis).
Forward and right angle light scatter analysis of the morphological response to MET-ENK: The effect of MET-ENK on cell morphology were measured using flow cytometric analysis of forward and right angle light scatter as previously described (Sklar et al., 1984). For these studies 10^6 cells were resuspended in one-ml of PBS, activated by the addition of MET-ENK or maintained in the PBS buffer alone, and then, incubated for 5 minutes at 37° C. […] Samples were analyzed on a Becton Dickinson FACS SCAN flow cytometer with excitation at 488 nm (Sklar et al., 1984). Histograms of light scattering were obtained by analyzing 10,000 cells for each sample. Data analysis was performed using the Lysys System software package.

NALM 6 cells [2] = test: [Ca^2+ ]i response of NALM 6 / leukemia cells (Indo-1, flow cytometry); type: cell-based, human
Description: FIG. 15, Panels A-C. […] Cells were labeled with Indo-1 as previously described (Rabinovitch et al., 1986), washed twice in serum-free medium and held at 4° C. until flow cytometric analysis. The violet/blue fluorescence ratio was measured using previously described methods (Rabinovitch et al., 1986). Nonstimulated cells (measured in medium, alone) were used to establish a relative violet/blue ratio arbitrarily set at 1.0 as previously described (Rabinovitch). Calibration of [Ca^2+ ]i was carried out as previously described by Rabinovitch et al (1986) using the formula: [formula]
Rmax values were determined by measuring the maximum shift in indo violet/blue fluorescence for cells treated with 4 μM ionomycin. Rmin was measured as the minimum ratio for the violet blue fluorescence of ionomycin treated cells following the addition of 8 mM EGTA. […] The Kd (effective dissociation constant) was set at 250 nM.

lymphocytes = conditions: infusion into afferent lymphatics, sheep; cited from earlier work
LAZ 221 cells = test: Flow cytometry of surface molecule expression on LAZ 221 cells; type: cell-based, human
Description: FIG. 4, Panels A-C. […] Data are presented as mean fluorescence intensities measured for 10,000 cells labeled with anti-CD9 or CD10 mAb. In Panel A, the NALM 6 Cells were incubated with MET-ENK (10^-7 M) for the times indicated. In Panel B, the LAZ 221 cells were incubated with MET-ENK at the doses indicated for 5 minutes at 37° C. […] The anti-CD9 and anti-CD10 mAb used for these experiments were of the IgG2a isotype.
Immunofluorescence Staining and Flow Cytometric Analysis of Cell Surface Molecules: Cells were resuspended at 1×10^6 /ml in PBS and then incubated for periods of 5 to 120 minutes at 37° C. with MET-ENK at doses of 0 to 10^-5 M. Incubations were terminated by transferring samples to an ice bath and then pelleting the cells by centrifugation at 1800 rpm for 5 minutes at 4° C.
Immunofluorescence staining was carried out in 4-ml tubes maintained in an ice water bath. […] Cells were subsequently fixed within a 2% solution of formalin and maintained in the dark at 10° C. until analyzed.
Flow cytometric analysis was performed using a FACS SCAN Flow Cytometer (Becton Dickinson, Mountain View, Calif.) equipped with a HP9000 Series computer and the Lysys System software analysis package. Data were collected as histograms depicting the fluorescence intensity for 5,000 to 10,000 cells per sample.
The non-binding IgG1 MOPC myeloma protein, anti-macrophage/monocyte specific CD14 (MO2; IgG2) and anti-T cell specific CD3 (OKT3; IgG2a) mAb were employed as nonreactive controls for measuring the autofluorescence of B cells.

NALM 6 cells [3] = conditions: cited from earlier work
Jurkat cells = test: MET-ENK-FITC binding to Jurkat cells (flow cytometry, Scatchard); design: species or system human
human T cells = conditions: Heagy et al., 1990; cited from earlier work
PBMC = conditions: cited from earlier work
EBI1 = target: T1, EBI1 (Homo sapiens, UniProt P32248)
T1 sequence (P32248 25-378): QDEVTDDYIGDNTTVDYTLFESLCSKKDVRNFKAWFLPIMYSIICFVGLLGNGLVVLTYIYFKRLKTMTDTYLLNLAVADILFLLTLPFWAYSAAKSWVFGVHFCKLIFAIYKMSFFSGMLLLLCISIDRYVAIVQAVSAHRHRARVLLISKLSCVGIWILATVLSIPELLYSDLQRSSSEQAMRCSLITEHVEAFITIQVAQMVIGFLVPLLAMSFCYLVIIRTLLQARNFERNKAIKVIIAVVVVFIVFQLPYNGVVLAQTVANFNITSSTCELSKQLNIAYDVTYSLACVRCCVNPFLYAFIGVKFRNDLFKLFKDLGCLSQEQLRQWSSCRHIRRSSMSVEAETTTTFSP

murine splenocytes = conditions: cited from earlier work
NALM 6 cells [4] = test: cAMP accumulation in NALM 6 cells; type: cell-based, human; conditions: forskolin-activated NALM 6
Description: FIG. 16. […] NALM 6 cells (2×10^6 /ml) were stimulated with forskolin or forskolin+MET-ENK at the concentrations indicated and in the presence of 1 mM isobutyl-1-methylxanthine. Cyclic AMP was assayed after 15 minutes at 37° C. Data are expressed as fmoles of cAMP/minute. Samples were processed as previously described Cobb, Heagy, Dunner et al., 1980; cAMP was measured using a commercial RIA kit.

NK cells and lymphocytes = conditions: literature; cited from earlier work
[5] = LAZ 221, 10^-7 M MET-ENK, untreated 1.0
[6] = LAZ 221, 10^-7 M MET-ENK, untreated 1.7

For `CSCC[C@H](NC(=O)[C@H](Cc1ccccc1)NC(=O)CNC(=O)CNC(=O)[C@@H](N)Cc1ccc(O)cc1)C(=O)O` [MET-ENK, Tyr-Gly-Gly-Phe-Met], the “morphological response (light scatter) of NALM 6 cells” value (NALM 6 cells [1]; 5 minutes at 37° C.) was “increase in light scatter (right angle and forward)”, the “lowest MET-ENK concentration causing morphological response” value (NALM 6 cells [1]; NALM 6) was 0.01 nM and the “time of exposure for morphological response” value (NALM 6 cells [1]; NALM 6) was ≤ 5 minutes. The “[Ca^2+ ]i response” value (NALM 6 cells [2]) was “rapid rise in the concentration of free intracellular Ca2+; also recorded: rapid rise in [Ca^2+ ]i”, the “[Ca^2+ ]i response” value (NALM 6 cells [2]; listed as methionine-enkephalin) was “concentration dependent rise in [Ca^2+ ]i” and the “lymphocyte exit from popliteal nodes” value (lymphocytes) was “stimulated small and blast lymphocytes to exit the node and enter the efferent lymph”. For the same compound, the “surface expression of CD9” value (LAZ 221 cells; LAZ 221) was “transient increase in their surface expression of CD9 but not CD10 molecules”, the “CD2 (LFA-2) fluorescence ratio” value (LAZ 221 cells; LAZ 221, 10^-7 M MET-ENK, untreated 0.9) was 1.0 and the CD4 fluorescence ratio (LAZ 221 cells; [5]) was 1.0. For the same compound, the “CD11a (LF1α) fluorescence ratio” value (LAZ 221 cells; [5]) was 1.1, the “CD18 (Integrin β chain) fluorescence ratio” value (LAZ 221 cells; [5]) was 1.1 and the CD20 fluorescence ratio (LAZ 221 cells; [5]) was 1.1. The “CD11b (Mac 1) fluorescence ratio” value (LAZ 221 cells; LAZ 221, 10^-7 M MET-ENK, untreated 1.4) was 1.5, the “CD54 (ICAM-1) fluorescence ratio” value (LAZ 221 cells; LAZ 221, 10^-7 M MET-ENK, untreated 1.5) was 1.5 and the CD19 fluorescence ratio (LAZ 221 cells; [6]) was 1.9. The “CD29 (VLA-β chain) fluorescence ratio” value (LAZ 221 cells; [6]) was 1.9, the “CD58 (LFA-3) fluorescence ratio” value (LAZ 221 cells; [6]) was 1.9 and the “VLA-β; DE9N fluorescence ratio” value (LAZ 221 cells; LAZ 221, 10^-7 M MET-ENK, untreated 5.8) was 5.6. For the same compound, the “lowest dose increasing CD9 expression” value (LAZ 221 cells; LAZ 221, 5 minutes at 37° C.) was 10^-11 M, the “lag phase before [Ca^2+ ]i rise” value (NALM 6 cells [3]) was ~ 30 sec and the “Bmax, low affinity sites” value (Jurkat cells) was 3.3×10^4 sites/cell and 3.0×10^4 sites/cell. For the same compound, the “number of high affinity sites” value (Jurkat cells) was 3.3 pM, the “number of low affinity sites” value (Jurkat cells) was 101 pM and the “Bmax, low affinity sites” value (Jurkat cells; listed as methionine enkephalin) was 3.0×10^4 sites/cell. For the same compound, the Kd (Jurkat cells; read-out: Kd, high affinity site) was 0.00136 µM, the Kd (Jurkat cells; read-out: Kd, low affinity site) was 0.318 µM and the “human T cell migration” value (human T cells) was “potent stimulants for the migration of isolated human T cells”. The “blastogenic responses to T and B cell lectins” value (PBMC; PBMC) was “augment the blastogenic responses of PBMC to both T and B cell lectins”, the IFN-γ production (PBMC; lectin stimulated PBMC) was “enhance IFN-γ production” and the cAMP (EBI1) was 109.6 fmoles/cell × 10^3. The “humoral / antibody response” value (murine splenocytes) was “diminished”, the “cAMP production in NALM 6 cells” value (NALM 6 cells [4]) was “enhancement in the production of cAMP” and the “cAMP production in NALM 6 cells” value (NALM 6 cells [4]; listed as Methionine-enkephalin) was “potentiates cAMP accumulation”. The “NK cell activity, lymphocyte proliferation, antibody production” value (NK cells and lymphocytes) was “diminish NK cell activity, decrease lymphocyte proliferation, and inhibit antibody production”.
